Source: US6376175B1, “Methods of discovering chemicals capable of functioning as gene expression modulators” (OSI Pharmaceuticals, Inc., priority 1989, dated 2002)

Tests used:
[1] = system: G-CSF promoter; experiment: G-CSF promoter-luciferase induction by known inducers, clone G 1002 (5637 cells); assay type: cell-based, human
Text: Cloning of G-CSF sequences is described in Experimental Details, section B-3. In order to correctly fuse the G-CSF upstream sequences to the luciferase start codon, oligonucleotides were synthesized which contain the G-CSF leader sequence from +15 to the ATG (32), and were cloned into pUC19 to create pGUC84 (FIG. 29). […] The G-CSF-oligonucleotide-containing NcoI/ScaI fragment from pGUC84 was then isolated and ligated to the luciferase-containing NcoI/ScaI fragment from pUV100 to create pGUV100 (FIG. 30). Following this, the PstI fragment of the G-CSF promoter was isolated form pJM710 (FIG. 7) and inserted into the PstI site in pGUV100 generating pGUV1(FIG. 31). The rest of the G-CSF promoter clone was added by ligating the G-CSF-luciferase containing SfiI/ScaI fragment from pGUV1 to the appropriate SfiI/ScaI fragment from pJM710, creating the plasmid pGUV2 (FIG. 32). The XbaI fragment from pGUV2 containing the G-CSF-luciferase fusion was then cloned into pUV103 previously digested with XbaI/SpeI, generating pGUV140 (FIG. 33). Finally, a TK-Neo cassette (Section C) was included by ligating the ScaI/XbaI fragment from pGUV140 which contains the G-CSF-luciferase fusion into pTKNEO103 previously digested with ScaI/XbaI, yielding the final vector pGUV150 (FIG. 34).
All the following constructs were transfected into 5637 bladder carcinoma cells either by electroporation using a BRL (Gaithersburg, Md.) Cellporator electroporation device or by lipofection using BRL lipofectin and following the manufacturer's protocol. For electroporation, cells were trypsinized, treated with Soybean trypsin inhibitor (1 mg/ml), washed three times in Dulbecco's modified Eagle's medium (DMEM) without pH indicator, and 1 ml of cell suspension in DMEM was electroporated at room temperature and at a cell density of 5 million cells per ml at a voltage of 250 V and a capacitance of 1180 microFarad with the electroporation device set at low resistance. In previous experiments these parameters had been determined to result in optimal electroporation efficiency. About 15 min after electroporation cells were recovered from the disposable electroporation containers (BRL, Gaithersburg, Md.) and plated in RPMI containing 10% fetal calf serum. 2 days after electroporation 0.4 mg/ml G 418 were added and clonal cell colonies were picked 14-20 days after transfection. Clones were first analysed for luciferase expression using Lysis Buffer 1 without bovine serum albumin (see Section F) and those testing positive expanded further and frozen in liquid nitrogen. Further analysis of 6 clones (G 1002, G 2005, G 2071, G 2085, G 3014, G3031) included Southern blotting, reaction to known inducers, satisfactory attachment to microtiter plates and acceptable standard deviation in multiple luciferase expression assays. Clones G 2005 and G 2085 were derived from 5637 cells lipofected with 100 ug/ml of linearized pGVU150 (FIG. 34), G 3031 descends from cells electroporated with 100 ug/ml of linearized pGVU150, whereas 200 ug/ml of the same plasmid were used to generate G 3014. Cotransfection of circular pGVU140 (FIG. 33) with circular pTKNeo3 (FIG. 19) was used to generate clones G 1002 and G 2071. While G 1002 resulted from co-electroporation of 50 and 5 ug/ml of the two plasmids, G 2071 descends from cells lipofected with 100 and 10 ug.
Cell clones with correctly integrated promoter/reporter constructs were analysed for correct reaction to known transcriptional inducers. […] Both TNF-alpha- and PMA-induction levels of clone G 1002 were influenced by the presence or absence of epidermal growth factor (EGF). […] The 9.3fold induction by PMA in the absence of EGF was reduced to 5.6fold by including EGF in the serum-free incubation mixture. Similar differences were observed, when EGF was substituted by 10% fetal calf serum.

[2] = system: secreted G-CSF protein; experiment: Two-antibody sandwich immunoassay of G-CSF secreted by 5637 bladder carcinoma cells; assay type: cell-based, human; settings: 5637 cells, 48 hours, serum-containing media; TNF-alpha 5 ng/ml; #542 50 uM; #1780 1 uM and 0.2 uM; FIG. 55
Experimental: Supernatants from 5637 bladder carcinoma cells incubated with chemicals registering as positives in the G-CSF promoter/luciferase High-Throughput assay were assayed for secreted G-CSF protein using the two-antibody sandwich immunoassay (96). The G-CSF Assay kit manufactured by Oncogene Science, Inc. was used and the manufacturer's instructions were followed.
The levels of G-CSF in the cell supernatants were determined by a sandwich-antibody assay as described in Materials and Methods (FIG. 55).

[3] = 7-hour incubation, serum-free defined media with 20 ng/ml EGF
[4] = 7-hour incubation, serum-free defined media, absence of EGF
[5] = 10.5 hours, serum-containing media, 8.3 ng/ml TNF-alpha, 20 ng/ml PMA, 0.5 ng/ml Interleukin-1 beta, or mixtures as labelled

## CCCCCCCCCCCCCC(=O)O[C@@H]1[C@@H](C)[C@@]2(O)[C@@H](C=C(CO)C[C@]3(O)C(=O)C(C)=C[C@@H]23)[C@@H]2C(C)(C)[C@]12OC(C)=O [PMA, phorbo-myristate-acetate, reference compound]
[1]; [3]
  G-CSF promoter induction, clone G 1002: 5.6 fold
[1]; [4]
  G-CSF promoter induction, clone G 1002: 9.3 fold
[1]; [5]
  G-CSF promoter induction, clone G 1002: 4.4 fold

## TNF-alpha
[1]; [3]
  G-CSF promoter induction, clone G 1002: 3 fold
[1]; [4]
  G-CSF promoter induction, clone G 1002: 4 fold
[1]; [5]
  G-CSF promoter induction, clone G 1002: 2 fold
[2]
  G-CSF secretion into media: increased G-CSF secretion
